In the supplement of paper PMC11061612:

Assays:
Assay in all cases: Bliss excess, mean over the matrix (fraction); higher = more synergy
[1] = system: NCI-H661 (Non-Small Cell Lung Carcinoma)
Summary of the method: (§1)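 Cell lines grown in DMEM/F12 or RPMI with 10% FBS were plated in 1536-well plates and held 24 hours at 37°C, 5% CO2 before 72 hours of exposure to two-drug dose matrices, with DMSO typically at 0.2%. CellTiter-Glo 2.0 luminescence gave viability, which was converted to inhibition. Vehicle wells were set to 0 and blank wells to 1. Combination Emax is the second-highest inhibition in the matrix, and Bliss excess is the observed combination effect minus the expected EA + EB − EA·EB, where EA and EB are the single-agent effects.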

[2] = system: RPMI-8226 (Plasma Cell Myeloma)
Summary of the method: as §1

[3] = system: COR-L279 (Small Cell Lung Carcinoma)
Summary of the method: as §1

[4] = system: 8505C (Thyroid Gland Carcinoma)
Summary of the method: as §1

RD (Rhabdomyosarcoma) = system: RD (Rhabdomyosarcoma)
Summary of the method: as §1

[5] = system: SK-GT-4 (Esophageal Adenocarcinoma)
Summary of the method: as §1

[6] = system: KMS-12-BM (Plasma Cell Myeloma)
Summary of the method: as §1

[7] = system: DAN-G (Pancreatic Carcinoma)
Summary of the method: as §1

[8] = system: NCI-H929 (Plasma Cell Myeloma)
Summary of the method: as §1

M059J (Glioblastoma) = system: M059J (Glioblastoma)
Summary of the method: as §1

[9] = system: HCC1419 (Breast Carcinoma)
Summary of the method: as §1

[10] = system: VMRC-RCZ (Kidney Carcinoma)
Summary of the method: as §1

[11] = system: SK-GT-2 (Gastric Carcinoma)
Summary of the method: as §1

[12] = system: NCI-H520 (Squamous Cell Lung Carcinoma)
Summary of the method: as §1

[13] = system: MOG-G-CCM (Low Grade Glioma)
Summary of the method: as §1

[14] = system: CW-2 (Colorectal Carcinoma)
Summary of the method: as §1

[15] = system: SNU-398 (Hepatocellular Carcinoma)
Summary of the method: as §1

[16] = system: KYSE-270 (Esophageal Squamous Cell Carcinoma)
Summary of the method: as §1

SJSA-1 (Osteosarcoma) = system: SJSA-1 (Osteosarcoma)
Summary of the method: as §1

[17] = system: ST486 (Burkitt's Lymphoma)
Summary of the method: as §1

SMILES	Bliss excess [1]	Bliss excess [2]	Bliss excess [3]	Bliss excess [4]	Bliss excess (RD (Rhabdomyosarcoma))	Bliss excess [5]	Bliss excess [6]	Bliss excess [7]	Bliss excess [8]	Bliss excess (M059J (Glioblastoma))	Bliss excess [9]	Bliss excess [10]	Bliss excess [11]	Bliss excess [12]	Bliss excess [13]	Bliss excess [14]	Bliss excess [15]	Bliss excess [16]	Bliss excess (SJSA-1 (Osteosarcoma))	Bliss excess [17]
COc1cccc(OCCCN)c1-c1cc(Nc2cnc(C#N)cn2)n[nH]1 [Prexasertib] + CCc1c2c(nc3ccc(O)cc13)-c1cc3c(c(=O)n1C2)COC(=O)[C@]3(O)CC [SN-38] (first compound max 1 µM, 7x7, partner max 0.3 µM)	0.0419	0.0686	-0.0221	-0.0559	0.065	-0.0304	0.0381	0.0239	-0.0713	-0.0373	-0.0098	0.0578	0.034	-0.0483	0.0411	-0.0035	0.0441	0.0028	-0.129	0.0412
COc1cccc(OCCCN)c1-c1cc(Nc2cnc(C#N)cn2)n[nH]1 [Prexasertib] + CN(C)CCCOc1ccc(-c2ccc3ncc4c(c3c2)n(C2CCOCC2)c(=O)n4C)cn1 [AZD0156] (first compound max 1 µM, 7x7, partner max 1 µM)	-0.0451	-0.0048	0.0053	-0.0089	-0.0008	-0.0116	0.0343	-0.0132	-0.0523	-0.0826	-0.0285	-0.0279	-0.0519	-0.0486	-0.0184	0.0498	0.0501	-0.0024	-0.0246	-0.0139
COc1cccc(OCCCN)c1-c1cc(Nc2cnc(C#N)cn2)n[nH]1 [Prexasertib] + C[C@@H]1COCCN1C2=NC(=NC(=C2)C3(CC3)[S@](=N)(=O)C)C4=C5C=CNC5=NC=C4 [AZD6738] (first compound max 1 µM, 7x7, partner max 10 µM)	-0.0655	-0.006	0.0035	-0.0075	0.0085	-0.0233	-0.0071	-0.0309	-0.0081	-0.0325	-0.0473	0.0255	-0.0043	-0.0481	-0.0254	0.0785	0.026	-0.0323	0.0188	-0.0336
COc1cccc(OCCCN)c1-c1cc(Nc2cnc(C#N)cn2)n[nH]1 [Prexasertib] + Cc1cc2ncnn2cc1Nc1ncc2c(n1)n(C1CCOCC1)c(=O)n2C [AZD7648] (first compound max 1 µM, 7x7, partner max 10 µM)	-0.0543	-0.0936	0.0225	0.0131	-0.0283	-0.088	0.0085	-0.0095	-0.0864	-0.0178	-0.0211	-0.0074	-0.0454	0.0278	-0.0037	0.043	0.0353	-0.0355	-0.0326	-0.0289
COc1cccc(OCCCN)c1-c1cc(Nc2cnc(C#N)cn2)n[nH]1 [Prexasertib] + O=C(c1cc(Cc2n[nH]c(=O)c3ccccc23)ccc1F)N1CCN(C(=O)C2CC2)CC1 [Olaparib] (first compound max 1 µM, 7x7, partner max 10 µM)	-0.0373	0.0124	-0.0493	-0.0434	-0.0444	-0.0984	-0.0312	-0.0164	-0.0638	-0.0643	-0.0229	-0.049	-0.0472	-0.0756	-0.053	-0.0281	-0.0572	-0.0789	-0.0639	-0.0406
COc1cc2c(cc1OCCCCCOc1cc3c(cc1OC)C(=O)N1C=C(C)C[C@H]1C=N3)N=C[C@@H]1CC(C)=CN1C2=O [SG3199] + O=C(c1cc(Cc2n[nH]c(=O)c3ccccc23)ccc1F)N1CCN(C(=O)C2CC2)CC1 [Olaparib] (first compound max 0.001 µM, 7x7, partner max 10 µM)	-0.0432	-0.0213	-0.0351	-0.0031	-0.0453	-0.0661	0.0202	-0.0266	-0.0333	-0.037	-0.119	-0.0461	-0.0066	-0.0503	-0.0387	-0.0126	-0.0322	-0.0595	-0.0252	-0.0258
CCc1c2c(nc3ccc(O)cc13)-c1cc3c(c(=O)n1C2)COC(=O)[C@]3(O)CC [SN-38] + CN(C)CCCOc1ccc(-c2ccc3ncc4c(c3c2)n(C2CCOCC2)c(=O)n4C)cn1 [AZD0156] (first compound max 0.3 µM, 7x7, partner max 1 µM)	0.0286	0.0218	0.0163	0.014	-0.0329	-0.12	0.0462	0.0626	-0.089	-0.0104	-0.0773	-0.0124	0.0054	0.0044	0.0143	-0.0118	0.0255	-0.0393	-0.0469	0.0498
